Experiments:
[1] = Ratio of drug concentration at steady state in human at 750 mg, po TID or 1250 mg, po BID after 12 hrs to IC50 for human MRP4 overexpressed in Sf9 insect cells; format: ADME, organism-based; conditions: in vivo
Homo sapiens [2] = test: Drug concentration at steady state in human at 750 mg, po TID or 1250 mg, po BID after 12 hrs; format: ADME, organism-based; conditions: in vivo
[3] = target: ATP-binding cassette sub-family C member 3 (Homo sapiens, UniProt O15438); test: Inhibition of human MRP3 overexpressed in Sf9 insect cell membrane vesicles assessed as uptake of [3H]-estradiol-17beta-D-glucuronide in presence of ATP and GSH measured after 10 mins by membrane vesicle transport assay; format: ADME, cell-based
ATP-binding cassette sub-family C member 3, sequence (O15438 whole entry): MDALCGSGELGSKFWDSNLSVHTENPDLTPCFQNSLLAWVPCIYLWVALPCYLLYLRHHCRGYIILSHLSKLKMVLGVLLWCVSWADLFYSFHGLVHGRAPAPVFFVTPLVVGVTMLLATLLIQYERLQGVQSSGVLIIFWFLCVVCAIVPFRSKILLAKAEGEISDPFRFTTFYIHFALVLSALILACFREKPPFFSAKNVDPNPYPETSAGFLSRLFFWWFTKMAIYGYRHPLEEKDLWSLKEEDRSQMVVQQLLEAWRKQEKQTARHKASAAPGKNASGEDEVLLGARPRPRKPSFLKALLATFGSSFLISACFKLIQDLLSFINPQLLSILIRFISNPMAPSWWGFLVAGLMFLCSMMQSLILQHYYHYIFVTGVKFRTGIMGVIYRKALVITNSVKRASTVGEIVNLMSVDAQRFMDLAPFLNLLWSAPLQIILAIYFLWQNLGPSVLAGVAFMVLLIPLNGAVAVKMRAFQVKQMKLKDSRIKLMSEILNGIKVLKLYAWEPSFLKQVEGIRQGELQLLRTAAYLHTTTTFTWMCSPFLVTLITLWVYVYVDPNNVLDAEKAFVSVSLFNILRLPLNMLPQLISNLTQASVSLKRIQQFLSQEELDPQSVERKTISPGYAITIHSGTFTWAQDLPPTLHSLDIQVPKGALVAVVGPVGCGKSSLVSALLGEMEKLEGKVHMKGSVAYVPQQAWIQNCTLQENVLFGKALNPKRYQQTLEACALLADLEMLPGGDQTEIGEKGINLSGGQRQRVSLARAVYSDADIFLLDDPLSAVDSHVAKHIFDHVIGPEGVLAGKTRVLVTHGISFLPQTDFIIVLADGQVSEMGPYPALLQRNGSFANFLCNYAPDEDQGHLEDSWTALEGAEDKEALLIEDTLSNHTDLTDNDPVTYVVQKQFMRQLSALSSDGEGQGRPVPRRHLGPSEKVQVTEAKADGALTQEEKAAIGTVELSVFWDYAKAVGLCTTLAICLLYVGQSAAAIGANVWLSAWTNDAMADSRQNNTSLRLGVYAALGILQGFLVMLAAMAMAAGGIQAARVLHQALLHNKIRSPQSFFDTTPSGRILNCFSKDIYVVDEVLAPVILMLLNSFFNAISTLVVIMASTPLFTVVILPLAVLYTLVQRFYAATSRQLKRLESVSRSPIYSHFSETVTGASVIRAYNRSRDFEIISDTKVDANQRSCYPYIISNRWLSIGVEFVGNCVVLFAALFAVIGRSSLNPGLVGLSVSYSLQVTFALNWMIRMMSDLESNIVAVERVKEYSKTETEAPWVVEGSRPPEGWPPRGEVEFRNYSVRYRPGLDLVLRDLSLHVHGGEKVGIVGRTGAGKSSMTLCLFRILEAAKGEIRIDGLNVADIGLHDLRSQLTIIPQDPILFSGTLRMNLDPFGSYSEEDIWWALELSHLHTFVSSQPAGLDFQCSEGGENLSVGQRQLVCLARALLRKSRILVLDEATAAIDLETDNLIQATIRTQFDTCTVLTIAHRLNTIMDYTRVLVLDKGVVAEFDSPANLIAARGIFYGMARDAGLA

[4] = target: ATP-binding cassette sub-family C member 2 (Homo sapiens, UniProt Q92887); test: Inhibition of human MRP2 overexpressed in Sf9 cell membrane vesicles assessed as uptake of [3H]-estradiol-17beta-D-glucuronide in presence of ATP and GSH measured after 20 mins by membrane vesicle transport assay
ATP-binding cassette sub-family C member 2, sequence (Q92887 whole entry): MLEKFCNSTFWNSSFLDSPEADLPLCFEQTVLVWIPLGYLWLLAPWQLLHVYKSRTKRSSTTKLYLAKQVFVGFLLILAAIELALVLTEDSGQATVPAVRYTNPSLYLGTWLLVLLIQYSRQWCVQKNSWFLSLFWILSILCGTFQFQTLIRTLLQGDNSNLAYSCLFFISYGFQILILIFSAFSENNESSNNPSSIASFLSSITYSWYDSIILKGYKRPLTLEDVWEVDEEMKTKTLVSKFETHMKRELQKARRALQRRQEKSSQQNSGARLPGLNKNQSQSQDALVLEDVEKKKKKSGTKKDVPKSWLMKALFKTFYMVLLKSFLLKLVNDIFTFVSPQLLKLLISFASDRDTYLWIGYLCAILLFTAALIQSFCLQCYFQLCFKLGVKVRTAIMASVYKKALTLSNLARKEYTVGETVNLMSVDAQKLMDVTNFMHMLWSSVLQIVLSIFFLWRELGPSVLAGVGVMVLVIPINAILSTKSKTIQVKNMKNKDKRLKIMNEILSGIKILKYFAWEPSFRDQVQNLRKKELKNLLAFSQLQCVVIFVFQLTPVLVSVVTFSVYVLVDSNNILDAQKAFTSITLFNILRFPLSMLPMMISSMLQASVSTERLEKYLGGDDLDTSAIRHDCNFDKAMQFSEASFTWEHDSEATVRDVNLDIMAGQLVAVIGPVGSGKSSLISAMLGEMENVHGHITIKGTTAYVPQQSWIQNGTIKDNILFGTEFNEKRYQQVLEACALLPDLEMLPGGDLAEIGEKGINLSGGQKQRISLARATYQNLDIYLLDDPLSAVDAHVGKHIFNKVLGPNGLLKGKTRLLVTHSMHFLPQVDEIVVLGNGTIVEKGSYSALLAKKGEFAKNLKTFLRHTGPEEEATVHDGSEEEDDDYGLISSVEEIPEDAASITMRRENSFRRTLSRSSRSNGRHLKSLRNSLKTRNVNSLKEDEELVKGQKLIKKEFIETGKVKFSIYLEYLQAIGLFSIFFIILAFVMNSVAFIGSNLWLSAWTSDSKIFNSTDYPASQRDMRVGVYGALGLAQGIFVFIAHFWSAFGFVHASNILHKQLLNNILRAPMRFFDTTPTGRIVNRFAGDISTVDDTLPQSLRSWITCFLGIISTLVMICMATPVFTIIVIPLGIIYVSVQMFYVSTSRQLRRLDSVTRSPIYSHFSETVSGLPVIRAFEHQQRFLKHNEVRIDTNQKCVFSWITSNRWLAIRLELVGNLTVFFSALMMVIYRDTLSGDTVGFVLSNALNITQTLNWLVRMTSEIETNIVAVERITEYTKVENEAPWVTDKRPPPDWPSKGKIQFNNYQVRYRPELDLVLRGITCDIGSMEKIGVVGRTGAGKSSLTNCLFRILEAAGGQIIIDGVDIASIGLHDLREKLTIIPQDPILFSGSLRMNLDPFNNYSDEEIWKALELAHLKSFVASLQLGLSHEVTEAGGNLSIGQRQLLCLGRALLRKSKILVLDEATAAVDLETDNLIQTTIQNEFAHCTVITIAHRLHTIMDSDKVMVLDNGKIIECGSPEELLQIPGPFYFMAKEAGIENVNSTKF

[5] = AUC in human at 750 mg, po TID or 1250 mg, po BID after 12 hrs; format: ADME, organism-based; set-up: dose 750 mg, time < 12 hr, route oral; conditions: in vivo
[6] = Ratio of drug concentration at steady state in human at 750 mg, po TID or 1250 mg, po BID after 12 hrs to IC50 for human BSEP overexpressed in Sf9 insect cells; format: ADME, organism-based; conditions: in vivo
[7] = target: T1, ATP-binding cassette sub-family C member 4 (Homo sapiens, UniProt O15439); test: Inhibition of human MRP4 overexpressed in Sf9 cell membrane vesicles assessed as uptake of [3H]-estradiol-17beta-D-glucuronide in presence of ATP and GSH measured after 20 mins by membrane vesicle transport assay; format: ADME, cell-based
T1 sequence (O15439 whole entry): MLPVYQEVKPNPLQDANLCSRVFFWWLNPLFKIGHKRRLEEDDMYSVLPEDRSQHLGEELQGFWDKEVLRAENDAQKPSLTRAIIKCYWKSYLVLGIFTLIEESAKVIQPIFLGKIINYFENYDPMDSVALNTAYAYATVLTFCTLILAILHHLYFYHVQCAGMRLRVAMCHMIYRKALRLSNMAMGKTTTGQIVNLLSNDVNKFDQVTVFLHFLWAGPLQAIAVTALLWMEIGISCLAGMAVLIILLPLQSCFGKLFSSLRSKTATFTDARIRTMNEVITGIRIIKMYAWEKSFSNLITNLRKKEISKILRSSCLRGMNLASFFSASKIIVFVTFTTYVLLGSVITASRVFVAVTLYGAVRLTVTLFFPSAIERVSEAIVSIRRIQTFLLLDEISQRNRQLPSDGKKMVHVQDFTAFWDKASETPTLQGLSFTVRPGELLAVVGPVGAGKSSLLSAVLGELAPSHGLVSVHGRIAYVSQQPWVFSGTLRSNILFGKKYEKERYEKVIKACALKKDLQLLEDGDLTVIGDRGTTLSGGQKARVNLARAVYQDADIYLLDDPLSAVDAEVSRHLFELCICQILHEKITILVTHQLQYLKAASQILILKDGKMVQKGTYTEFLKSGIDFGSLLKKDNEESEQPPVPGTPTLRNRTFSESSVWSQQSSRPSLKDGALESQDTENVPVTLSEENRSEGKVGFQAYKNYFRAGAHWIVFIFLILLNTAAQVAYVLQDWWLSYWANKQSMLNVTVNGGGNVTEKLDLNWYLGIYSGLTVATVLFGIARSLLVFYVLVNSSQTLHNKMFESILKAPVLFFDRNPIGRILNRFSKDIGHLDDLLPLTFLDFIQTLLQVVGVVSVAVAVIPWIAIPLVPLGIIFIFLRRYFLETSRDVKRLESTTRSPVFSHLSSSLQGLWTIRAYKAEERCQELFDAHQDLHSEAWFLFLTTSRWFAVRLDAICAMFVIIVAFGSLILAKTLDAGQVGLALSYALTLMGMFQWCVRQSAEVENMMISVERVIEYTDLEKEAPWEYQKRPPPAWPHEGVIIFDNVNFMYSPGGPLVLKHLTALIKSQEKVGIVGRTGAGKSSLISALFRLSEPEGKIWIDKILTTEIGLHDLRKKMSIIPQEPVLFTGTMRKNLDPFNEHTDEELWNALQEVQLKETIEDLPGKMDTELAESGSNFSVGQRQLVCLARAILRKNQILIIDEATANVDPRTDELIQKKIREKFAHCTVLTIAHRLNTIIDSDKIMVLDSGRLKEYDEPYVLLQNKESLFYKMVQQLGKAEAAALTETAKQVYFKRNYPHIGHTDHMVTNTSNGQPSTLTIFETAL

[8] = Ratio of drug concentration at steady state in human at 100 mg, po BID to IC50 for human MRP4 overexpressed in Sf9 insect cells; format: ADME, organism-based; conditions: in vivo
[9] = Ratio of AUC in liver to plasma in Sprague-Dawley rat at 1500 mg/kg, po administered as single oral gavage measured after 24 hrs by Liquid chromatography/tandem mass spectrometry; format: ADME, organism-based; conditions: liver and plasma, read-out: Ratio AUC
Homo sapiens [10] = test: Drug concentration at steady state in human at 100 mg, po BID; format: ADME, organism-based; conditions: in vivo
Bile salt export pump = Bile salt export pump (Homo sapiens, UniProt O95342); test: Inhibition of human BSEP overexpressed in Sf9 cell membrane vesicles assessed as uptake of [3H]-taurocholate in presence of ATP measured after 15 to 20 mins by membrane vesicle transport assay; format: ADME, cell-based
Bile salt export pump, sequence (O95342 whole entry): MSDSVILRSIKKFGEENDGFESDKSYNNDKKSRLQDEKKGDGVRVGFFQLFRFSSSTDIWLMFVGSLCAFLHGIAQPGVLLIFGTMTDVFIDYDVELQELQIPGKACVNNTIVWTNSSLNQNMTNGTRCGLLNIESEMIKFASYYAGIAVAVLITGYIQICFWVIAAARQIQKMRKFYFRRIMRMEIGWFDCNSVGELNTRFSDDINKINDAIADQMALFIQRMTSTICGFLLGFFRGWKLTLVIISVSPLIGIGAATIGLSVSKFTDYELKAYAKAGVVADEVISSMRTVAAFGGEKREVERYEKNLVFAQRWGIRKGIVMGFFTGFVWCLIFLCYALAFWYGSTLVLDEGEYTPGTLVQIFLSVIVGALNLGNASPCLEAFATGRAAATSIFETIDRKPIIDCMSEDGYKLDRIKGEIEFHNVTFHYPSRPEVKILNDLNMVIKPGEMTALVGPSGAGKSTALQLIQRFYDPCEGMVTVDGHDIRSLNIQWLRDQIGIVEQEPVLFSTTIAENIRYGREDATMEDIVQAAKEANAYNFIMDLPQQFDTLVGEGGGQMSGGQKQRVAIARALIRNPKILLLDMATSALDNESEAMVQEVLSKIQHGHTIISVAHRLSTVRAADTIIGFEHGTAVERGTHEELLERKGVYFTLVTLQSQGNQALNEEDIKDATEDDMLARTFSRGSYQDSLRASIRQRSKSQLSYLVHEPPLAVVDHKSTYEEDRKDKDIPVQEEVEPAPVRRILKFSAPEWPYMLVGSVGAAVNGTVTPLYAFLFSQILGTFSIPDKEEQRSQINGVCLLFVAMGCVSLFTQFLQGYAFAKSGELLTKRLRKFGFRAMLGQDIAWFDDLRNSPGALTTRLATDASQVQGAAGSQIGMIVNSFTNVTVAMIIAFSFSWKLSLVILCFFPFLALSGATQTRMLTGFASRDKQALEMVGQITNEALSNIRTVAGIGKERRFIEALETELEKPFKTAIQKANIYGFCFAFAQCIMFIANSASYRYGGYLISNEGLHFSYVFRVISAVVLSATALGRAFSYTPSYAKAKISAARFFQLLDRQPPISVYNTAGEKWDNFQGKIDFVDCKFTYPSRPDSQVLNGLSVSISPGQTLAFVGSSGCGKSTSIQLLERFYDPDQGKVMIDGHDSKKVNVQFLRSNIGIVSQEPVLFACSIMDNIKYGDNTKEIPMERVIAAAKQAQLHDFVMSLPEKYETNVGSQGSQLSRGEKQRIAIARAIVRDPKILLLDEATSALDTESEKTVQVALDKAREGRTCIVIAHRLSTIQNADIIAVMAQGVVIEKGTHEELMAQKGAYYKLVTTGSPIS

[11] = AUC in human at 100 mg, po BID; format: ADME, organism-based; conditions: in vivo
[12] = Ratio of drug concentration at steady state in human at 100 mg, po BID to IC50 for human MRP3 overexpressed in Sf9 insect cells; format: ADME, organism-based; conditions: in vivo
[13] = Ratio of drug concentration at steady state in human at 100 mg, po BID to IC50 for human BSEP overexpressed in Sf9 insect cells; format: ADME, organism-based; conditions: in vivo

Row | SMILES | Ratio [1] | Css (Homo sapiens [2]) [µM] | IC50 [3] [µM] | IC50 [4] [µM] | AUC at 12 h [5] [µM·h] | Ratio [6] | IC50 [7] [µM] | Ratio [8] | Kp at 24 h [9] | Css (Homo sapiens [10]) [µM] | IC50 (Bile salt export pump) [µM] | AUC [11] [ng·h/mL] | Ratio [12] | Ratio [13]
1 | Cc1c(O)cccc1C(=O)N[C@@H](CSc1ccccc1)[C@H](O)CN1C[C@H]2CCCC[C@H]2C[C@H]1C(=O)NC(C)(C)C | 0.067 | 6.482 | > 133 | > 133 | 77.8 | 0.549 | 97 | – | – | – | – | – | – | –
2 | CCCCNC(=O)c1ccc(Oc2ccc(CC(=O)O)cc2OC)c(NS(=O)(=O)c2ccc(Cl)cc2Cl)c1 | – | – | 1.1 | – | – | – | 13.5 | 0.18 | 27 | 2.4 | 11.5 | 32800 | 2.2 | 0.21
